Data: ChEMBL document CHEMBL3886736, “Substituted sulfonamides useful as antiapoptotic Bcl inhibitors” (2016)

Assays:
[1] = target: Apoptosis regulator Bcl-2 (Homo sapiens, UniProt P10415); experiment: Fluorescence Polarization Assay (FPA): The assays were performed in black flat-bottom 384-well plates. The final assay volume was 50 μl prepared from additions of Gst-Bcl-2 (Bcl-2: GENBANK® Accession No. P10415), fluoresceinated 18-mer BIM peptide (NH2-[…]-[FAM]) (SEQ ID NO: 1), and test compounds in assay buffer consisting of 20 mM Sodium Phosphate, 1 mM EDTA, 50 mM NaCl, and 0.05% Pluronic Acid. The reaction was incubated at room temperature for 60 minutes and fluorescence polarization of the reaction was detected on the LJL Plate Reader. Inhibition data were calculated from mP values generated by the no protein control reactions for 100% inhibition and vehicle-only reactions for 0% inhibition. The final concentrations of reagents in the assay were 4.9 nM BCL-2, 5 nM fluoresceinated 18-mer BIM peptide and 1% DMSO.
Bcl-2-like protein 1 = Bcl-2-like protein 1 (Homo sapiens, UniProt Q07817); experiment: Fluorescence Resonance Energy Transfer Assay (FRET): The assays were performed in black flat-bottom 384-well plates. The final assay volume was 55 μl prepared from additions of Biotin-Bcl-xL (Bcl-xL: GENBANK® Accession No. Q07817), fluoresceinated 18-mer BIM peptide (NH2-[…]-[FAM]) (SEQ ID NO: 1), Streptavidin-Terbium FRET detection reagent, and test compounds in assay buffer consisting of 20 mM Sodium Phosphate, 1 mM EDTA, 50 mM NaCl, and 0.05% Pluronic Acid. The reaction was incubated at room temperature for 60 minutes. After 60 minutes, 5 μL of Streptavidin-Terbium FRET detection reagent (Perkin Elmer) was added to the reaction mixture and incubated at room temperature in the dark for 30 mins. The FRET signal generated by the reaction was detected on the Envision Plate Reader Inhibition data were calculated from FRET values generated by the no protein control reactions for 100% inhibition and vehicle-only reactions for 0% inhibition. The final concentration of reagents in the assay was 10 nM Bcl-xL, 5 nM fluo
Sequence of Bcl-2-like protein 1 (Q07817 whole entry): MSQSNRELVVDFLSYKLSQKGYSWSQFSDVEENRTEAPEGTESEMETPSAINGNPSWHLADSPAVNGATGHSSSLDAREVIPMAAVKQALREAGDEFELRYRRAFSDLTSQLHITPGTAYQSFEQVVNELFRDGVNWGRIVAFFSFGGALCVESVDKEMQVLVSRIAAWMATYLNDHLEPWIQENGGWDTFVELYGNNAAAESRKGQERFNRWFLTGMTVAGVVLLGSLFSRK

Sequence of Apoptosis regulator Bcl-2 (P10415 whole entry): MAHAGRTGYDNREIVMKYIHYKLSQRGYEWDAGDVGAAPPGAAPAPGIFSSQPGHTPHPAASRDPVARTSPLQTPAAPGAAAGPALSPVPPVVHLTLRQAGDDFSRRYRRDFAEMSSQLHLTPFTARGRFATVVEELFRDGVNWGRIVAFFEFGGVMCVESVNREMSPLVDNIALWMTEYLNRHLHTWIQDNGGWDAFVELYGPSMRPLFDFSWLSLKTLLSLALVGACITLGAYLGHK

Compound	IC50 [1] [nM]	IC50 (Bcl-2-like protein 1) [nM]
CCCCN(CCCC)C(=O)c1cn(CCN2CCOCC2)c(-c2ccc(C(=O)NS(=O)(=O)c3ccc4ccccc4c3)cc2C(=O)N2Cc3ccccc3C[C@H]2CO)n1	120	60
Cc1c(Cl)c(C(=O)NCc2ccc(-c3ccc(CC(=O)O)cc3)cc2)nn1-c1ccc(C(=O)NS(=O)(=O)c2ccc3c(c2)CCN3Cc2ccc(Cl)c(Cl)c2)cc1C(=O)N1CCc2ccccc2C1	50	8070
CCCCN(CCCC)C(=O)c1cn(CCCN(C)C)c(-c2ccc(C(=O)NS(=O)(=O)c3ccc4ccccc4c3)cc2C(=O)N2CCc3ccccc3C2)n1	200	30
